Like-named read-outs stand apart in the source and are kept apart here.

The conditions of series [1]: cited from earlier work.

Consider `Cc1nnc2n1-c1ccc(Cl)cc1C(c1ccccc1)=NC2` [alprazolam], for which the “cytoprotective effect of resin composition” value (“cytoprotective effect” below) in the series on human cells is recorded as “cytoprotective effect has been shown”.
Broadly, the logD is lipophilicity at a set pH, counting ionised and neutral species. With `CNS(=O)(=O)CCc1ccc2[nH]cc(C3CCN(C)CC3)c2c1` [naratriptan], the logD in series [1] (pH 7.4) is −0.85.
With `CN1CCCC1c1cccnc1` (stereo not shown) [nicotine], in series [1] (pH 7.4), the logD is on record as −0.62. The “cytoprotective effect” value with human cells is “cytoprotective effect has been shown”.
Take `CCCc1nc(C)c2c(=O)[nH]c(-c3cc(S(=O)(=O)N4CCN(CC)CC4)ccc3OCC)nn12` [vardenafil]: the logD in series [1] (pH 5.5) was 2.26; in series [1] (pH 7.4), 3.71.
Turning to `O=C(O)Cc1ccccc1Nc1c(Cl)cccc1Cl` [diclofenac], the “cytoprotective effect” value in the series on human cells is given as “cytoprotective effect has been shown”.
Still for that read-out and setting: next, `CC(C)Cc1ccc(C(C)C(=O)O)cc1` (stereo not shown) [ibuprofen]: “cytoprotective effect has been shown”; `CC[C@H]1OC(=O)[C@H](C)[C@@H](O[C@H]2C[C@@](C)(OC)[C@@H](O)[C@H](C)O2)[C@H](C)[C@@H](O[C@@H]2O[C@H](C)C[C@H](N(C)C)[C@H]2O)[C@](C)(O)C[C@@H](C)C(=O)[C@H](C)[C@@H](O)[C@]1(C)O` [erythromycin]: “cytoprotective effect has been shown”.
Regarding `Cc1nccn1CC1CCc2c(c3ccccc3n2C)C1=O` (stereo not shown) [ondansetron], in series [1] (pH 7.4), the logD is 1.2. Also, the “cytoprotective effect” value with human cells is on record as “cytoprotective effect has been shown”.
As to `CCCc1nn(C)c2c(=O)[nH]c(-c3cc(S(=O)(=O)N4CCN(C)CC4)ccc3OCC)nc12` [sildenafil], the logD in series [1] (pH 5.5) is 1.83; in series [1] (pH 7.4) it was 2.26.

The values above are taken from patent US20140371210A1, “METHODS AND COMPOSITIONS FOR RAPID TRANSBUCCAL DELIVERY OF ACTIVE AGENTS” (Jaleva Pharmaceuticals, LLC, priority 2011, published 2014).
